Some test systems named below: NCI-H522 lung; SNB-19 CNS; NCI-H460 lung; MDA-MB-231 breast; SN12C renal; SW-620 colon; SK-OV-3 ovarian; NCI-H23 lung; SR leukemia; SF-295 CNS.
Common to all, as to assay: inhibition of tumour cell growth, NCI panel, 48 h

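Compound exposure: 48 hours, 5 concentrations, 96-well plates. Here, GI50 denotes the concentration required for 50% inhibition of growth. TGI is the concentration that stops growth completely.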

For `N#CC1=C(N)N=C(N2CCCCC2)C(C#N)C12Nc1ccccc1S2` (centres undefined), the GI50 in the assay on NCI-H522 lung is 22.2 µM; with SNB-19 CNS, 41 µM; in the assay on NCI-H460 lung, 27 µM; with MDA-MB-231 breast, 17.1 µM; with SN12C renal, 24.8 µM; with SW-620 colon, 38.4 µM. Besides, the GI50 in the assay on SK-OV-3 ovarian was 39.1 µM; in the assay on NCI-H23 lung, 16.7 µM; in the assay with SR leukemia it was more than 100 µM; in the assay on SF-295 CNS, 37.7 µM. The TGI was 56.8 µM in the assay on NCI-H522 lung; more than 100 µM in the assay with SNB-19 CNS; more than 100 µM in the assay with NCI-H460 lung; 58.7 µM in the assay with MDA-MB-231 breast; more than 100 µM with SN12C renal; more than 100 µM in the assay with SW-620 colon. For the same compound, the TGI was more than 100 µM in the assay on SK-OV-3 ovarian, 52.8 µM with NCI-H23 lung, more than 100 µM in the assay with SR leukemia and more than 100 µM in the assay with SF-295 CNS.
Turning to `S=c1nc(Oc2ccc(Cl)c(Cl)c2)[nH]c(=S)[nH]1`, the TGI is 38.2 µM in the assay on NCI-H522 lung; more than 100 µM with SNB-19 CNS; 64.9 µM in the assay with NCI-H460 lung; more than 100 µM in the assay with MDA-MB-231 breast; more than 95.6 µM in the assay on SN12C renal; more than 100 µM in the assay with SW-620 colon. Further, the TGI in the assay with SK-OV-3 ovarian is more than 100 µM; with NCI-H23 lung, more than 63.3 µM; in the assay on SR leukemia, more than 100 µM; in the assay with SF-295 CNS it was more than 100 µM.
In the case of `CCCc1ccc(S(=O)(=O)N[C@H]2CC[C@H]3[C@@H]4CCc5cc(O)ccc5[C@H]4CC[C@]23C)cc1`, the GI50 was 2.32 µM in the assay with NCI-H522 lung; 4.2 µM in the assay on SNB-19 CNS; 2.54 µM in the assay on NCI-H460 lung; 2.29 µM in the assay on MDA-MB-231 breast; 1.75 µM with SN12C renal; 3.6 µM in the assay with SW-620 colon. Also, the GI50 in the assay on SK-OV-3 ovarian is 3.65 µM; with NCI-H23 lung, 3.31 µM; in the assay on SR leukemia, 2.53 µM; in the assay with SF-295 CNS it was 3.06 µM. Moreover, the TGI was determined as 9.09 µM with NCI-H522 lung; 15.9 µM in the assay with SNB-19 CNS; 6.41 µM in the assay with NCI-H460 lung; 6.21 µM with MDA-MB-231 breast; 3.44 µM in the assay with SN12C renal; 14.2 µM in the assay on SW-620 colon. Moreover, the TGI with SK-OV-3 ovarian stood at 12.4 µM; in the assay with NCI-H23 lung, 14.6 µM; in the assay on SR leukemia, 8.06 µM; with SF-295 CNS, 10.9 µM.
For `c1ccc2[nH]c(SSc3nc4ncncc4[nH]3)nc2c1`, the GI50 is 0.383 µM in the assay with NCI-H522 lung; 64.5 µM with SNB-19 CNS; 4.48 µM in the assay with NCI-H460 lung; 2.9 µM with MDA-MB-231 breast; 5.38 µM in the assay with SN12C renal; 3.24 µM in the assay with SW-620 colon. Besides, the GI50 in the assay on SK-OV-3 ovarian is 0.37 µM; in the assay on NCI-H23 lung it was 2.9 µM; in the assay on SR leukemia, 0.551 µM; in the assay on SF-295 CNS it was 0.457 µM. Besides, the TGI in the assay on SNB-19 CNS is more than 100 µM; in the assay on NCI-H460 lung it was more than 100 µM; with MDA-MB-231 breast, more than 100 µM; in the assay on SN12C renal, more than 100 µM; in the assay with SW-620 colon, more than 100 µM; in the assay with SK-OV-3 ovarian, 34.2 µM. Moreover, the TGI in the assay with NCI-H23 lung and with SR leukemia was more than 100 µM throughout.
As for `CC1(C)NCCC[C@]2(C)[C@H]3C=CC4=C5C[C@](C)(CO)CC[C@]5(C)CC[C@@]4(C)[C@]3(C)CC[C@@H]12`, the GI50 in the assay with NCI-H522 lung is 2.38 µM; with SNB-19 CNS, 11.6 µM; with NCI-H460 lung, 4.17 µM; in the assay with MDA-MB-231 breast it was 14.5 µM; in the assay with SN12C renal, 3.34 µM; in the assay with SW-620 colon, 5.76 µM. Further, the GI50 in the assay on SK-OV-3 ovarian is 14.5 µM; in the assay on NCI-H23 lung it was 3.15 µM; in the assay on SR leukemia, 2.42 µM; with SF-295 CNS it was 2 µM. Further, the TGI worked out at 7.31 µM in the assay on NCI-H522 lung; 25.3 µM in the assay on SNB-19 CNS; 15.2 µM in the assay on NCI-H460 lung; 29.3 µM with MDA-MB-231 breast; 12 µM in the assay with SN12C renal; 18.8 µM in the assay on SW-620 colon. Besides, the TGI was determined as 28.6 µM in the assay on SK-OV-3 ovarian, 12.5 µM in the assay on NCI-H23 lung, 7.17 µM in the assay on SR leukemia and 4.04 µM with SF-295 CNS.
Turning to `O=[N+]([O-])c1ccc(-c2nc(N(CCO)CCO)c3ccccc3n2)o1`, the GI50 with NCI-H522 lung was 0.0713 µM; with SNB-19 CNS, 0.229 µM; with NCI-H460 lung, 0.0537 µM; in the assay with MDA-MB-231 breast, 1.08 µM; in the assay with SN12C renal it was 0.292 µM; with SW-620 colon, 0.265 µM. For the same compound, the GI50 in the assay with SK-OV-3 ovarian was 0.156 µM; in the assay with NCI-H23 lung, 0.1 µM; in the assay with SR leukemia, 0.0881 µM; with SF-295 CNS, 0.192 µM. The TGI in the assay with NCI-H522 lung stood at 0.217 µM; with SNB-19 CNS, 1.41 µM; in the assay with NCI-H460 lung, 0.38 µM; with MDA-MB-231 breast, 4.25 µM; in the assay with SN12C renal, 7.72 µM; in the assay with SW-620 colon, 2.55 µM. Besides, the TGI in the assay on SK-OV-3 ovarian is 0.401 µM; with NCI-H23 lung it was 0.314 µM; in the assay on SF-295 CNS, 1.03 µM.
Consider `COc1ccc(CNc2nc3cc(N)cc(N)c3nc2-c2ccccc2)cc1OC`, for which the GI50 with NCI-H522 lung was 8.16 µM; with SNB-19 CNS it was 20.1 µM; in the assay on NCI-H460 lung, 27.1 µM; in the assay with MDA-MB-231 breast, 4.27 µM; in the assay on SN12C renal, 14 µM; in the assay with SW-620 colon, 7.77 µM. Also, the GI50 in the assay on SK-OV-3 ovarian is 22.8 µM; in the assay with NCI-H23 lung it was 16.9 µM; with SR leukemia, 2.94 µM; in the assay on SF-295 CNS it was 15.3 µM. Moreover, the TGI in the assay on NCI-H522 lung was 24.6 µM; with SNB-19 CNS it was more than 61 µM; with NCI-H460 lung, more than 95.3 µM; with MDA-MB-231 breast, 10.6 µM; in the assay on SN12C renal, 27.9 µM; with SW-620 colon, more than 58.9 µM. The TGI with SK-OV-3 ovarian amounted to 45.6 µM; with NCI-H23 lung, 35.7 µM; in the assay on SR leukemia it was 25.9 µM; in the assay on SF-295 CNS it was 29.8 µM.
Regarding `OCC(O)C(O)C(O)C1SC(c2ccccc2)=NN1c1ccccc1` (centres undefined), the TGI in the assay with NCI-H522 lung was 75.4 µM; in the assay with SNB-19 CNS, more than 89.8 µM; with NCI-H460 lung, more than 100 µM; in the assay with MDA-MB-231 breast it was more than 91.6 µM; with SN12C renal it was more than 100 µM; with SW-620 colon, more than 100 µM. Besides, the TGI is 76.9 µM with SK-OV-3 ovarian, more than 95.7 µM with NCI-H23 lung, more than 100 µM in the assay on SR leukemia and more than 100 µM in the assay with SF-295 CNS.
With `FC(F)(F)c1cccc(COCCN2CCN(Cc3cccc(C(F)(F)F)c3)CC2)c1`, the TGI is 26.5 µM with NCI-H522 lung; 29.4 µM in the assay with SNB-19 CNS; 34.7 µM in the assay with NCI-H460 lung; 44.7 µM in the assay on MDA-MB-231 breast; 33 µM in the assay with SN12C renal; 28.3 µM in the assay with SW-620 colon. The TGI with SK-OV-3 ovarian was 31.1 µM; in the assay on NCI-H23 lung, 41.1 µM; with SR leukemia it was more than 100 µM; in the assay with SF-295 CNS, 37.5 µM.
`Cc1ccccc1C(=O)C#Cc1cn(C2CC(O)C(CO)O2)c(=O)[nH]c1=O` (centres undefined): the TGI in the assay with NCI-H522 lung is 28.7 µM; in the assay with SNB-19 CNS it was more than 100 µM; in the assay with NCI-H460 lung it was more than 100 µM; with MDA-MB-231 breast, more than 100 µM; in the assay on SN12C renal it was more than 100 µM; in the assay on SW-620 colon it was more than 100 µM. In addition, the TGI in the assay on SK-OV-3 ovarian, in the assay with NCI-H23 lung, in the assay on SR leukemia and in the assay with SF-295 CNS was more than 100 µM throughout.
As for `NCCCC(=O)Nc1ccncc1`, the GI50 in the assay on NCI-H522 lung, in the assay on SNB-19 CNS, with NCI-H460 lung, in the assay with MDA-MB-231 breast, with SN12C renal and in the assay on SW-620 colon was more than 100 µM throughout. Also, the GI50 with SK-OV-3 ovarian, in the assay on NCI-H23 lung, in the assay on SR leukemia and in the assay on SF-295 CNS was more than 100 µM in each case. Also, the TGI in the assay on NCI-H522 lung, in the assay with SNB-19 CNS, with NCI-H460 lung, with MDA-MB-231 breast, with SN12C renal and with SW-620 colon was more than 100 µM in each case. In addition, the TGI in the assay on SK-OV-3 ovarian, with NCI-H23 lung, with SR leukemia and with SF-295 CNS was more than 100 µM each time.
In the case of `COc1ccc2c(c1)nc(N)c1c3cc(OC)c(OC)cc3cn21`, the GI50 in the assay with NCI-H522 lung was less than 0.01 µM; with SNB-19 CNS it was 0.0967 µM; with NCI-H460 lung it was 0.0606 µM; in the assay on MDA-MB-231 breast, 0.345 µM; with SN12C renal, 0.147 µM; in the assay on SW-620 colon it was less than 0.01 µM. The GI50 with SK-OV-3 ovarian and with SR leukemia was less than 0.01 µM throughout. Also, the TGI in the assay with SNB-19 CNS was 19.1 µM; with NCI-H460 lung, 11 µM; in the assay on MDA-MB-231 breast, 17.4 µM; with SN12C renal it was 17.5 µM; with SW-620 colon, 19.8 µM; in the assay with SK-OV-3 ovarian, 0.321 µM. The figures for the TGI with NCI-H23 lung, in the assay on SR leukemia and in the assay with SF-295 CNS were 5.7 µM, 5.04 µM and 16.2 µM, respectively.
For `CC1(C)COCN1COC1CCCCC1`, the TGI in the assay on NCI-H522 lung, in the assay with SNB-19 CNS, in the assay on NCI-H460 lung, in the assay on MDA-MB-231 breast, in the assay on SN12C renal and with SW-620 colon was more than 100 µM throughout. Also, the TGI was more than 100 µM in the assay with SK-OV-3 ovarian, more than 100 µM in the assay on NCI-H23 lung, 44 µM in the assay on SR leukemia and more than 100 µM in the assay on SF-295 CNS.
As for `Nc1nc2cc(CNc3ccc(C(=O)O)cc3)ccc2nc1-c1ccccc1`, the TGI in the assay with NCI-H522 lung, in the assay with SNB-19 CNS, with NCI-H460 lung, with MDA-MB-231 breast, in the assay on SN12C renal and in the assay on SW-620 colon was more than 100 µM throughout. Besides, the TGI in the assay on SK-OV-3 ovarian, in the assay with NCI-H23 lung, in the assay with SR leukemia and in the assay with SF-295 CNS was more than 100 µM each time.

These data come from PubChem BioAssay (NCI).
